system: Normal human dermal fibroblasts; test: Collagen production evaluation test (Sircol collagen assay); type: cell-based; conditions: Homo sapiens, Fibroblast; sample 100 μM; cultured 48 hours; read-out: Collagen production promoting effect (collagen production amount, control group is 100%)
Experimental: The collagen production promoting effects of the glyceryl ascorbic acid acylated derivatives of the present invention were evaluated, according to the following procedure. As comparison, arbutin, ascorbic acid, sodium ascorbate, magnesium ascorbyl phosphate, glucosyl ascorbic acid, 3-O-glyceryl ascorbic acid and 2-O-glyceryl ascorbic acid were used like in Test Example 1.
Normal human dermal fibroblasts were regulated with a 10% (v/v) fetal bovine serum (manufactured by Invitrogen)-containing D-MEM so as to give a cell density of 2.5×10^4 cells/well, then, pre-incubation for 24 hours was performed on a 96-well plate. After the medium was removed, a sample regulated with a 5% (v/v) fetal bovine serum-containing D-MEM to a concentration of 100 μM was added to each well, then, cultured for 48 hours at 37° C. and 5% CO2. After completion of culturing, the amount of free collagen was measured using Sircol collagen assay kit (manufactured by Biocolor).
The collagen production amount in applying a sample at a concentration of 100 μM is obtained as % value when the control group is 100%, and the results are shown in Table 4 based on the following standard.

Structure (SMILES) | activity at 100 µM [%]
O=C1O[C@H]([C@@H](O)CO)C(OCC(O)CO)=C1O (stereo partly shown) [3-O-glyceryl ascorbic acid] | 100 to 200
CCCCCCCCCCCCCCCC(=O)OC[C@H](O)[C@H]1OC(=O)C(OCC(O)CO)=C1O (stereo partly shown) [Example 3, 2-O-glyceryl-6-O-hexadecanoyl ascorbic acid] | 100 to 200
CCCCCCCC(=O)OCC(O)COC1=C(O)[C@@H]([C@@H](O)COC(=O)CCCCCCC)OC1=O (stereo partly shown) [Example 4, 2-O-(3′-O-octanoylglyceryl)-6-O-octanoyl ascorbic acid] | 100 to 200
CCCCC(CC)C(=O)OC[C@H](O)[C@H]1OC(=O)C(OCC(O)CO)=C1O (stereo partly shown) [Example 6, 2-O-glyceryl-6-O-(2-ethylhexanoyl) ascorbic acid] | 100 to 200

system: not listed separately; test: In vivo moisturizing test (stratum corneum water content, forearm); conditions: 5 g in 100 mL water, pH 7; 0.3 mL on forearm; 3 hours; 10 subjects
Experimental: (§1) An in vitro moisturizing test and an in vivo moisturizing test of the glyceryl ascorbic acid acylated derivatives of Examples 1 to 6 were carried out according to the following manner. For comparison, sodium ascorbate, magnesium ascorbyl phosphate, glucosyl ascorbic acid, 3-O-glyceryl ascorbic acid, 2-O-glyceryl ascorbic acid and 3-O-cetyl ascorbic acid were used.
Each test sample (5 g) was dissolved in 100 mL of water, and pH thereof was adjusted to 7 with a dilute sodium hydroxide aqueous solution or a dilute hydrochloric acid aqueous solution to prepare a sample solution. A paper filter of 1 cm×1 cm was placed on a forearm portion and 0.3 mL of the prepared sample solution was applied on this, and covered and fixed by a polyamide film. Then, 3 hours and 8 hours after, the stratum corneum water content at the sample-applied portion was measured using CORNEOMETER CM825 (manufactured by Integral Corporation). The test was carried out with 10 subjects, and evaluated according to the following criterion (evaluation standard).
3: Stratum corneum water content increased by 15% or more, based on the water content before sample application
2: Stratum corneum water content increased by 0 to less than 15%, based on the water content before sample application
1: There was no change or there was a reduction in stratum corneum water content, before and after sample application.
Based on the evaluation results, classification was set as described below.
◯: Total points of 10 subjects is 25 or more
Δ: Total points of 10 subjects is 16 to 24
x: Total points of 10 subjects is 15 or less

Structure (SMILES) | in vivo moisturizing (stratum corneum water content) after 3 hours
CCCCCCCCCCCCCCCC(=O)OC[C@H](O)[C@H]1OC(=O)C(OCC(O)CO)=C1O (stereo partly shown) [Example 3, 2-O-glyceryl-6-O-hexadecanoyl ascorbic acid] | ◯ (Total points of 10 subjects is 25 or more)
CCCCCCCC(=O)OCC(O)COC1=C(O)[C@@H]([C@@H](O)COC(=O)CCCCCCC)OC1=O (stereo partly shown) [Example 4, 2-O-(3′-O-octanoylglyceryl)-6-O-octanoyl ascorbic acid] | ◯ (Total points of 10 subjects is 25 or more)
CCCCC(CC)C(=O)OC[C@H](O)[C@H]1OC(=O)C(OCC(O)CO)=C1O (stereo partly shown) [Example 6, 2-O-glyceryl-6-O-(2-ethylhexanoyl) ascorbic acid] | ◯ (Total points of 10 subjects is 25 or more)

same assay, conditions: 5 g in 100 mL water, pH 7; 0.3 mL on forearm; 8 hours; 10 subjects

Structure (SMILES) | in vivo moisturizing (stratum corneum water content) after 8 hours
O=C1O[C@H]([C@@H](O)CO)C(OCC(O)CO)=C1O (stereo partly shown) [3-O-glyceryl ascorbic acid] | Δ (Total points of 10 subjects is 16 to 24)
CCCCCCCCCCCCCCCC(=O)OC[C@H](O)[C@H]1OC(=O)C(OCC(O)CO)=C1O (stereo partly shown) [Example 3, 2-O-glyceryl-6-O-hexadecanoyl ascorbic acid] | ◯ (Total points of 10 subjects is 25 or more)
CCCCCCCC(=O)OCC(O)COC1=C(O)[C@@H]([C@@H](O)COC(=O)CCCCCCC)OC1=O (stereo partly shown) [Example 4, 2-O-(3′-O-octanoylglyceryl)-6-O-octanoyl ascorbic acid] | ◯ (Total points of 10 subjects is 25 or more)
CCCCC(CC)C(=O)OC[C@H](O)[C@H]1OC(=O)C(OCC(O)CO)=C1O (stereo partly shown) [Example 6, 2-O-glyceryl-6-O-(2-ethylhexanoyl) ascorbic acid] | ◯ (Total points of 10 subjects is 25 or more)

system: not listed separately; test: Stability test: odor and color change of 2% aqueous solution stored at 50° C.; type: physicochemical; conditions: storage 2 weeks at 50° C., pH7, ten panelists
Experimental: Using 2-O-glyceryl-6-O-octanoyl ascorbic acid obtained in Example 2 and 2-O-glyceryl-6-O-octadecanoyl ascorbic acid obtained in Example 9, an evaluation was made on the stability of odor and color change when stored at 50° C. for 4 weeks, according to the following procedure. For comparison, magnesium ascorbyl phosphate, ascorbic acid and 3-O-glyceryl ascorbic acid were used.
Aqueous solutions (2%) of various test samples were adjusted to pH7 with a dilute sodium hydroxide aqueous solution or a dilute hydrochloric acid aqueous solution, and charged into 50 mL screw tubes. The tubes were sealed and stored at 50° C. for 4 weeks. The odor and degree of color change immediately after preparation, after storage for two weeks and after storage for four weeks were evaluated by ten panelists based on the following methods and according to the following criterion.
3: almost no change as compared with that immediately after preparation
2: color change is observed as compared with that immediately after preparation
1: intense color change is observed as compared with that immediately after preparation
Based on the evaluation results, classification was conducted as shown below.
◯: total point of 10 panelists is 25 or more
Δ: total point of 10 panelists is 16 to 24
x: total point of 10 panelists is 15 or less

Structure (SMILES) | Color change | Odor
O=C1O[C@H]([C@@H](O)CO)C(OCC(O)CO)=C1O (stereo partly shown) [3-O-glyceryl ascorbic acid] | ◯ (total point of 10 panelists is 25 or more) | ◯ (total point of 10 panelists is 25 or more)

same assay, conditions: storage 4 weeks at 50° C., pH7, ten panelists

Structure (SMILES) | Color change | Odor
O=C1O[C@H]([C@@H](O)CO)C(OCC(O)CO)=C1O (stereo partly shown) [3-O-glyceryl ascorbic acid] | Δ (total point of 10 panelists is 16 to 24) | ◯ (total point of 10 panelists is 25 or more)

same assay, conditions: storage period 0 (immediately after preparation), pH7, ten panelists

Structure (SMILES) | Color change | Odor
O=C1O[C@H]([C@@H](O)CO)C(OCC(O)CO)=C1O (stereo partly shown) [3-O-glyceryl ascorbic acid] | ◯ (total point of 10 panelists is 25 or more) | ◯ (total point of 10 panelists is 25 or more)

system: not listed separately; test: In vitro moisturizing test (amount of retained water); type: physicochemical; conditions: 25° C., 65% RH to equilibrium, then 25° C., 20% RH for 24 hours
Experimental: as §1
A sample shown later was dried, and the dried sample was spread in an amount of about 0.4 g (this weight is represented by W0) on the bottom of a weighing bottle (diameter: 3.6 cm, height excluding lid: 1.8 cm) so as to give uniform thickness. The sample contained in the weighing bottle was allowed to stand still in a constant humidity and constant temperature vessel (ENVIROS KCL-1000, EYELA) under environments of 25° C. and 65% RH. The weight was measured periodically, waiting until sufficient moisture absorption to attain equilibrium of weight increase (about 48 hours). Thereafter, the sample was transferred to under environments of 25° C. and 20% RH (in sealed vessel containing a saturated CH3COOK aqueous solution filled in the bottom part). From the weight after 24 hours (this weight is represented by W1), the amount of retained water per 1 g of the dried sample was calculated according to the following formula.
From the water amount thus calculated, the moisturizing effect was judged based on the following judging criterion, and the results are shown in Table 8.
Δ: 15 mg or more and less than 35 mg

in vitro moisturizing effect (amount of retained water per 1 g of the dried sample) | Structure (SMILES)
◯ (35 mg or more) | O=C1O[C@H]([C@@H](O)CO)C(OCC(O)CO)=C1O (stereo partly shown) [3-O-glyceryl ascorbic acid]

system: B16 melanoma 4A5 cell; test: Melanin production suppressing evaluation test (theophylline-induced melanine production); type: cell-based, mouse; conditions: sample at a concentration of 100 μl or less; 0.2 mM theophylline; culturing 3 days
Experimental: As a test for a whitening effect, evaluation of the action of B16 melanoma 4A5 cell on theophylline-induced melanine production was carried out on a glyceryl ascorbic acid acylated derivative of the present invention, according to the following procedure. The same evaluations were carried out also on arbutin, ascorbic acid, sodium ascorbate, magnesium ascorbyl phosphate, glucosyl ascorbic acid, and 3-O-glyceryl ascorbic acid and 2-O-glyceryl ascorbic acid obtained in the Synthesis Examples mentioned above, as comparison.
(1) B16 mouse melanoma 4A5 strain was sowed onto a 48-well plate at a cell density of 2.0×10^4 cells/well. (2) Culturing was performed for 24 hours with Dulbecco's Modified Eagle's medium (manufactured by SIGMA. Hereinafter, abbreviated as D-MEM) containing 10% fetal bovine serum (manufactured by Roshe Diagnostics). Then, it was changed to 0.2 mM theophylline and a 10% fetal bovine serum-containing D-MEM which contains a sample of given concentration. (3) After culturing for 3 days in the co-existence of a sample, the medium was removed using an aspirator. Then, after distilled water was added, cells were broken by an ultrasonic wave. (4) Thereafter, the amount of protein was determined using BCA protein assay kit (manufactured by PIERCE), and the produced amount of melanine was measured by an alkali solubilizing method described later. To the cell-destructed solution was added sodium hydroxide so as to give a final concentration of 2 mol/L and the mixture was dissolved by heating (60° C., 15 minutes), then, the absorbance at 450 nm was measured using a micro plate reader. The melanine amount was calculated from a calibration curve made using synthetic melanine (SIGMA) as a standard. The melanine amount per unit protein was calculated by dividing the melanine amount by the protein amount. (5) The melanine production suppressing rate was calculated according to the following formula.
Melanine production suppressing rate(%)=[1−(A−B)/(C−B)]×100
[wherein, A represents the melanine amount per unit protein (g/g) in adding a sample, B represents the melanine amount per unit protein (g/g) in the normal group, and C represents the melanine amount per unit protein (g/g) in the control group.]
The normal group means the case where neither theophylline nor sample was added.(that is; theophylline(−) and sample(−))
The control group means the case where neither sample was not added but theophylline was added.(that is; theophylline (+) and sample(−))
In the following Tables, the melanine production suppressing rate in applying a sample at a concentration of […] or less is expressed as described below.

Structure (SMILES) | Whitening effect (melanine production suppressing rate)
O=C1O[C@H]([C@@H](O)CO)C(OCC(O)CO)=C1O (stereo partly shown) [3-O-glyceryl ascorbic acid] | Δ (Less than 30%)
CCCCCCCCCCCCCCCC(=O)OC[C@H](O)[C@H]1OC(=O)C(OCC(O)CO)=C1O (stereo partly shown) [Example 3, 2-O-glyceryl-6-O-hexadecanoyl ascorbic acid] | ⊚ (50% or more)
CCCCCCCC(=O)OCC(O)COC1=C(O)[C@@H]([C@@H](O)COC(=O)CCCCCCC)OC1=O (stereo partly shown) [Example 4, 2-O-(3′-O-octanoylglyceryl)-6-O-octanoyl ascorbic acid] | ⊚ (50% or more)
CCCCC(CC)C(=O)OC[C@H](O)[C@H]1OC(=O)C(OCC(O)CO)=C1O (stereo partly shown) [Example 6, 2-O-glyceryl-6-O-(2-ethylhexanoyl) ascorbic acid] | ⊚ (50% or more)

Source: patent publication US20130204017A1, “GLYCERYL ASCORBIC ACID ACYLATED DERIVATIVE OR ITS SALT, PRODUCTION METHOD THEREOF, AND COSMETICS” (SEIWA KASEI COMPANY, LIMITED, priority 2012, published 2013)
